Experimental data published in patent US12194294B2, “Oral drug delivery devices and methods using iontophoresis” (The Regents of the University of California, priority 2019, dated 2025).
Entries after “also recorded” stand apart in the source; their conditions may differ. Where two headings read alike, the source gives them in different places.

What was measured:
[1] = tested on: Caco-2 cells; experiment: TEER measurement of tight junction integrity in Caco-2 monolayers during FITC-insulin transport study; assay type: cell-based, human; settings: for TEER decrease: within 15 min
Protocol: Transport experiments were carried out in triplicates and at least 3 transwells were used per trial for each group. Before the start of the experiment, the existing medium in the transwell was replaced with phenol red, FBS and P/S free DMEM in both the apical (200 μl) and basolateral side (600 μl) and the cells were incubated for 30 min. […] This was performed at 0.25, 0.5, 1, 2, 3 and 5 h. A 50 μA electric current was applied to the cells during the first hour of the study for a period of 10 min, followed by a 10 min recovery period and this was repeated another two times. At the end of 1 h (total 30 min iontophoresis), the transwell plates were kept inside an incubator at 37° C., 5% CO2 and only taken out to remove 100 μl aliquots from the basolateral side followed by replacement with same volume fresh medium at the aforementioned time periods. […] TEER was measured at every time point when aliquots were withdrawn from the transwells.

[2] = tested on: non-diabetic rats; experiment: In vivo intestinal iontophoresis using insulin mucoadhesive patches: blood glucose; set-up: species or system rat
Protocol: Insulin mucoadhesive patches were prepared as described in Banerjee, et al., “Intestinal Mucoadhesive Devices for Oral Delivery of Insulin,” Bioeng. Transl. Med. 1, 338-346 (2016). […] About 110 mg of the mixture was pressed at 3-ton pressure using a hydraulic press into a patch. The patches were then cut into 5×3 mm (length×breadth) sized rectangular smaller patches. One side of the patch was completely covered with aluminum foil using minimal amount of super glue placed at one corner of the foil. Wires with a small section of their protective insulation removed were then stuck on the aluminum foil using super glue. Care was taken not to cover the entire wire placed over the foil with super glue. The exposed wire sticking on to the patches were then taped with an electrical insulating tape to prevent any loss of current in vivo through exposed wire.
Intestinal iontophoresis was carried out using a 6 V battery connected to the intestine. A potentiometer and an ammeter were used in the electrical circuit to accurately control and measure the electric current. Given that the identified safe threshold for iontophoresis is 0.5 mA/cm^2, the electrical parameters were selected in order to perform the studies using a safe current density of 0.33 mA/cm^2 (Singh, et. al., “Transdermal drug delivery by passive diffusion and iontophoresis: a review,” Med Res Rev., 13(5):569-621 (1993)). For the experiment, the rats were fasted overnight but given free access to water. Prior to the start of intestinal iontophoresis, the rats were anesthetized, a portion of abdomen prepped for surgery and an incision was made in the area to expose the intestine. Experiments were conducted using sterile instruments and following good surgical practices. […] Thereafter current (45-50 μA) was allowed to flow for 1.5 minutes followed by 3.5 minutes of recovery time for 1 h, amounting to a total 18 min of iontophoresis. After 1 h, the patches were left in place but the wires were disconnected from the battery and cut close to the inserted patches. The intestinal incisions with the patches left in place were stitched, the intestine put back into the abdomen and the muscle and skin sutured. Blood glucose was determined at the start of the study and at every 0.5 h till the end of study at 3 h. The rats were kept anesthetized until the end of experiment. Afterwards, the animals were euthanized and the intestinal sections in and around the patches were dissected for further histological examination to determine morphological changes, if any, due to iontophoresis.
Control experiments with no electric current were conducted similarly.
About 110 mg of the mixture was pressed at 3-ton pressure using a hydraulic press into a patch. The patches were then cut into 5×3 mm (length×breadth) sized rectangular smaller patches. One side of the patch was completely covered with aluminum foil using minimal amount of super glue placed at one corner of the foil. Wires with a small section of their protective insulation removed were then stuck on the aluminum foil using super glue. Care was taken not to cover the entire wire placed over the foil with super glue. The exposed wire sticking on to the patches were then taped with an electrical insulating tape to prevent any loss of current in vivo through exposed wire.
The circuit for in vivo experiments was set up as illustrated in FIG. 3. Intestinal iontophoresis was carried out using a 6 V battery connected to the intestine. A potentiometer and an ammeter were used in the electrical circuit to accurately control and measure the electric current. Given that the identified safe threshold for iontophoresis is 0.5 mA/cm2, the electrical parameters were selected in order to perform the studies using a safe current density of 0.33 mA/cm2 [8]. For the experiment, the rats were fasted overnight but given free access to water. […]

[3] = tested on: Caco-2 monolayers; settings: for FITC-insulin transported across the cells: end of 5 h; for Papp of FITC-insulin across the cells: in 5 h
Protocol: (§1) Caco-2 human intestinal epithelial cells (passages #5-10) were cultured in DMEM containing 10% v/v FBS and 1% v/v P/S and seeded in 24 well plate transwells at a density of 2×10^5 cells/ml. 200 μl DMEM with cells was placed in apical side while 600 μl cell free DMEM was placed in the basolateral side. The cells were allowed to grow for a period of 18-21 days and medium replaced with fresh DMEM every other day.
(§2) To maintain sterile conditions, all in vitro experiments including circuit set up were done under aseptic conditions in a biosafety cabinet. A 6 V battery was used to supply electrical current to transwells containing Caco-2 monolayer. The higher potential of the battery was connected to the basolateral side of the transwell while the lower potential of the battery connected to the apical side while taking care not to touch the transwell membranes with Caco-2 cell monolayer. The current applied to the cell was monitored by an ammeter and its value was adjusted to 50 μA using a potentiometer. Three different branches, each attached to an ammeter, potentiometer and transwell were connected in parallel across the battery to enable three different measurements at a time.
Transport experiments were carried out in triplicates and at least 3 transwells were used per trial for each group. Before the start of the experiment, the existing medium in the transwell was replaced with phenol red, FBS and P/S free DMEM in both the apical (200 μl) and basolateral side (600 μl) and the cells were incubated for 30 minutes. […] This was performed at 0.25, 0.5, 1, 2, 3 and 5 h. A 50 μA electrical current was applied to the cells during the first hour of the study for a period of 10 min, followed by 10 min recovery period and this was repeated another two times. At the end of 1 h (total 30 minutes iontophoresis), the transwell plates were kept inside an incubator at 37° C., 5% CO2 and only taken out to remove 100 μl aliquots from the basolateral side followed by replacement with same volume fresh medium at the aforementioned time periods. […] TEER was measured at every time point when aliquots were withdrawn from the transwells. Apparent permeability coefficient (Papp) was calculated using the equation (Brown, et al., “Dermal and transdermal drug delivery systems: current and future prospects,” Drug Deliv. 13(3):175-87 (2006)):
The transport enhancement ratio (ER) was calculated using the equation (Brown, et al., 2006): […]
as §1
as §2, with “the battery was connected to” for “the battery connected to”, “a potentiometer. […]” for “a potentiometer. Three different branches, each attached to an ammeter, potentiometer and transwell were connected in parallel across the battery to enable three different measurements at a time.”

[4] = tested on: Caco-2 cells; experiment: Confocal microscopy of FITC-insulin uptake by Caco-2 cells; assay type: cell-based, human; settings: cells exposed to electric current compared to control wells
Protocol: On the next day, the transwells were washed with HBSS and the membrane cut out and placed in glass slides. Mounting media with DAPI was added to the membranes and covered with glass slides. Confocal imaging was performed using Olympus Fluoview 1000 Spectral Confocal instrument at 60× magnification.
On the next day, the transwells were washed with HBSS and the membrane cut out and placed in glass slides. Mounting media with DAPI was added to the membranes and covered with glass slides. Confocal imaging was performed using Olympus Fluoview 1000™ Spectral Confocal instrument at 60× magnification.

[5] = control (no current) wells, 2 h
[6] = control (no current) wells, 3 h
[7] = 1 U/kg, subcutaneously injected, 1.5 h
[8] = 1 U/kg, subcutaneously injected, 3 h

## Human Insulin
[1]; at the end at 5 hours
  difference in TEER between control and electric current group: no significant difference
[1]; electric current, 2 h
  TEER drop of initial levels: 35%
[2]; 50 U/kg patch in intestine, 45-50 μA current, 3 h
  drop in blood glucose levels: 63%
[2]; patches with iontophoresis, rats, up to 3 h
  hypoglycemia: severely hypoglycemic

## fluorescein isothiocyanate (FITC)-insulin [FITC-insulin]
[3]; control group (no current)
  FITC-insulin transported across the cells: about 5.5 μg
[3]; electric current applied (50 μA)
  FITC-insulin transported across the cells: approximately 14.1 μg
[3]; from 2 hours onwards
  insulin transport across the cells, electric current vs control: significantly higher
[3]; without electricity
  Papp of FITC-insulin across the cells: 0.99 ×10⁻⁶ cm/s
[3]; without electricity (Example 3)
  Papp of FITC-insulin across the cells: 0.99 ×10⁻⁶ cm/s
[1]; [5]
  TEER reduction of initial levels: around 9%
  TEER, % of initial levels: 91.2±1.1%
[1]; [6]
  TEER reduction of initial levels: ~4%
  TEER, % of initial levels: 95.6±6.5%
[1]; control group
  TEER decrease: no specific decrease
[1]; electric current, 2 h
  TEER drop of initial levels: 35%
  TEER, % of initial levels: 65.7±3.8%
[1]; electric current
  TEER decrease: 10%
[4]
  uptake of FITC-insulin by cells (confocal images): presence of higher FITC-insulin; also recorded: higher uptake
[4]; listed as FITCmsulin
  uptake of FITC-insulin by cells (confocal images): higher uptake

## insulin solution: insulin solution injected intra-intestinally (50 U/kg) or subcutaneously (1 U/kg) as comparison
[2]; [7]
  blood glucose, % of initial levels: 57.9±4.1%
  maximum drop in blood glucose levels: 42%
[2]; [8]
  blood glucose drop after recovery: about 17%
  blood glucose, % of initial levels: 83.3±2.6%
[2]; 50 U/kg, intra-intestinally injected
  drop in blood glucose levels with time: did not show any drop
